For 17 compounds, perc_inhibition_mean and inhibition results are on record in paper doi:10.1101/2024.08.19.608619, “Discovery of potent SARS-CoV-2 nsp3 macrodomain inhibitors uncovers lack of translation to cellular antiviral response” (bioRxiv, 2024).

Assay [1] has as its target T1, SARS-CoV-2 nsp3-mac1 (Severe acute respiratory syndrome coronavirus 2, UniProt P0DTD1). Put plainly: biochemical. Type of assay: biochemical. The note with it: SARS-CoV-2 nsp3 macrodomain TR-FRET single point. A general note: Time-resolved FRET reads energy transfer from a long-lived donor to a nearby acceptor.
Assay [2] deals with T1, SARS-CoV-2 nsp3-mac1. Put plainly: biochemical. Further details: SARS-CoV-2 nsp3 macrodomain TR-FRET single point, per cent inhibition, n=2.
Where [3] appears, read: read-out: perc_inhibition_mean, batch_name=ASAP-0000469-001.
The mark [4] stands for this setting: read-out: perc_inhibition_mean, batch_name=ASAP-0000312-001.
Where [5] appears, read: read-out: perc_inhibition_mean, batch_name=ASAP-0000385-001.
The mark [6] stands for this setting: read-out: perc_inhibition_mean, batch_name=ASAP-0000280-001.
Setting [7] is: read-out: perc_inhibition_mean, batch_name=ASAP-0000474-001.
[8] abbreviates: read-out: perc_inhibition_mean, batch_name=ASAP-0000414-001.
Setting [9] is: read-out: perc_inhibition_mean, batch_name=ASAP-0000406-001.

Like-named read-outs stand apart in the source and are kept apart here.

Consider `O=C(N[C@H](Cn1cnc2cc(F)c(F)cc21)C(=O)O)c1ncnc2[nH]ccc12` [ASAP-0000469], for which the perc_inhibition_mean at SARS-CoV-2 nsp3-mac1 [1] (concentration 49.75 uM) is reported as -2.035%. In addition, the perc_inhibition_mean at SARS-CoV-2 nsp3-mac1 [1] (concentration 99.5 uM) is 8.395%. Also, at SARS-CoV-2 nsp3-mac1 [2] (setting [3]), the inhibition at 49.75 µM was -2.04% and the inhibition at 99.5 µM turned out to be 8.39%.

Consider `Brc1ccc(-n2nnnc2Sc2ncnc3[nH]ccc23)cc1` [ASAP-0000063], for which the perc_inhibition_mean at SARS-CoV-2 nsp3-mac1 [1] (concentration 50.0 uM) is recorded as 12.69%. Besides, on SARS-CoV-2 nsp3-mac1 [2] (read-out: perc_inhibition_mean, batch_name=ASAP-0000063-001), the inhibition at 50 µM is 12.7%.

Turning to `c1ccc2sc(CNc3ncnc4[nH]ccc34)nc2c1` [ASAP-0000036], the perc_inhibition_mean at SARS-CoV-2 nsp3-mac1 [1] (concentration 50.0 uM) is recorded as -0.671%. Further, the inhibition at 50 µM on SARS-CoV-2 nsp3-mac1 [2] (read-out: perc_inhibition_mean, batch_name=ASAP-0000036-001) is -0.671%.

Take `O=C(CNc1ncnc2[nH]ccc12)N1CCc2ccccc21` [ASAP-0000034]: the perc_inhibition_mean at SARS-CoV-2 nsp3-mac1 [1] (concentration 50.0 uM) was 1.193%. Besides, the inhibition at 50 µM at SARS-CoV-2 nsp3-mac1 [2] (read-out: perc_inhibition_mean, batch_name=ASAP-0000034-001) is 1.19%.

Take `Cc1ccnc(C2CCN(c3ncnc4[nH]ccc34)CC2)n1` [ASAP-0000050]: at SARS-CoV-2 nsp3-mac1 [1] (concentration 50.0 uM), the perc_inhibition_mean turned out to be 3.465%. Also, the inhibition at 50 µM at SARS-CoV-2 nsp3-mac1 [2] (read-out: perc_inhibition_mean, batch_name=ASAP-0000050-001) is 3.46%.

`C[C@]1(C(=O)N(CCC(=O)N2CCNCC2)Cc2cccc(Cl)c2)CCCN1` [ASAP-0000312]: the perc_inhibition_mean on SARS-CoV-2 nsp3-mac1 [1] (concentration 49.75 uM, n=2) is listed as 1.403%. The perc_inhibition_mean at SARS-CoV-2 nsp3-mac1 [1] (concentration 99.5 uM, n=2) turned out to be 2.129%. Also, at SARS-CoV-2 nsp3-mac1 [2] (setting [4]), the inhibition at 49.75 µM was 1.4% and the inhibition at 99.5 µM is 2.13%.

`CCC[C@@](C)(NC(=O)c1ncnc2[nH]ccc12)C(=O)OC` [ASAP-0000082]: at SARS-CoV-2 nsp3-mac1 [1] (concentration 50.0 uM), the perc_inhibition_mean is -6.621%. In addition, the inhibition at 50 µM at SARS-CoV-2 nsp3-mac1 [2] (read-out: perc_inhibition_mean, batch_name=ASAP-0000082-001) was -6.62%.

As for `O=C(c1cnc2[nH]ncc2c1)N1CCC(c2ccn3ncc(C(=O)N4CCCCC4)c3c2)CC1` [ASAP-0000385], on SARS-CoV-2 nsp3-mac1 [1] (concentration 49.75 uM), the perc_inhibition_mean is given as 15.807%. In addition, the perc_inhibition_mean on SARS-CoV-2 nsp3-mac1 [1] (concentration 99.5 uM) turned out to be 34.368%. Further, on SARS-CoV-2 nsp3-mac1 [2] (setting [5]), the inhibition at 49.75 µM was found to be 15.8% and the inhibition at 99.5 µM was determined as 34.4%.

With `O=C(Cn1c(=O)[nH]c2ccccc21)Nc1cnc2[nH]ncc2c1` [ASAP-0000137], the perc_inhibition_mean at SARS-CoV-2 nsp3-mac1 [1] (concentration 50.0 uM) came out at 1.776%. Also, the inhibition at 50 µM on SARS-CoV-2 nsp3-mac1 [2] (read-out: perc_inhibition_mean, batch_name=ASAP-0000137-001) turned out to be 1.78%.

Regarding `O=C(c1ccccc1)N1CCC(c2ccn3ncc(C(=O)N4CCc5nc[nH]c5C4)c3c2)CC1` [ASAP-0000280], the perc_inhibition_mean on SARS-CoV-2 nsp3-mac1 [1] (concentration 49.75 uM, n=2) turned out to be 11.216%; at SARS-CoV-2 nsp3-mac1 [1] (concentration 99.5 uM, n=2), 20.268%. For the same compound, the inhibition at 49.75 µM on SARS-CoV-2 nsp3-mac1 [2] (setting [6]) amounted to 11.2%. In addition, on SARS-CoV-2 nsp3-mac1 [2] (setting [6]), the inhibition at 99.5 µM was 20.3%.

`c1ccc2sc([C@@H]3CCCN(c4ncnc5[nH]ccc45)C3)nc2c1` [ASAP-0000085]: the perc_inhibition_mean on SARS-CoV-2 nsp3-mac1 [1] (concentration 50.0 uM) is recorded as -0.779%. Further, the inhibition at 50 µM at SARS-CoV-2 nsp3-mac1 [2] (read-out: perc_inhibition_mean, batch_name=ASAP-0000085-001) was -0.779%.

In the case of `Cn1cc([C@H]2CCCCN2c2ncnc3[nH]ccc23)cn1` [ASAP-0000474], the perc_inhibition_mean at SARS-CoV-2 nsp3-mac1 [1] (concentration 49.75 uM) stood at 6.392%; on SARS-CoV-2 nsp3-mac1 [1] (concentration 99.5 uM), 8.316%. Also, on SARS-CoV-2 nsp3-mac1 [2] (setting [7]), the inhibition at 49.75 µM was 6.39%. The inhibition at 99.5 µM at SARS-CoV-2 nsp3-mac1 [2] (setting [7]) stood at 8.32%.

On to `OC[C@@H]1CN(c2ncnc3nc[nH]c23)CCC1(F)F` [ASAP-0000045], for which the perc_inhibition_mean at SARS-CoV-2 nsp3-mac1 [1] (concentration 50.0 uM) is reported as 1.75%. For the same compound, the inhibition at 50 µM at SARS-CoV-2 nsp3-mac1 [2] (read-out: perc_inhibition_mean, batch_name=ASAP-0000045-001) is 1.75%.

Turning to `O=C(NCc1nc(-c2ccco2)n[nH]1)c1cc2nccn2c(=O)[nH]1` [ASAP-0000068], the perc_inhibition_mean at SARS-CoV-2 nsp3-mac1 [1] (concentration 50.0 uM) is -5.425%. Moreover, on SARS-CoV-2 nsp3-mac1 [2] (read-out: perc_inhibition_mean, batch_name=ASAP-0000068-001), the inhibition at 50 µM is -5.42%.

On to `Cc1[nH]ncc1CN(C)C(=O)c1cnn2ccc(C3CCN(C(=O)c4ccccc4)CC3)cc12` [ASAP-0000414], for which the perc_inhibition_mean is reported as -1.138% on SARS-CoV-2 nsp3-mac1 [1] (concentration 49.75 uM) and 0.307% on SARS-CoV-2 nsp3-mac1 [1] (concentration 99.5 uM). In addition, on SARS-CoV-2 nsp3-mac1 [2] (setting [8]), the inhibition at 49.75 µM was -1.14%. Moreover, at SARS-CoV-2 nsp3-mac1 [2] (setting [8]), the inhibition at 99.5 µM worked out at 0.307%.

On to `c1nc(N2CCC[C@@H](c3nc4c(s3)CCC4)C2)c2c[nH]nc2n1` [ASAP-0000055], for which the perc_inhibition_mean on SARS-CoV-2 nsp3-mac1 [1] (concentration 50.0 uM) stood at 3.826%. Also, on SARS-CoV-2 nsp3-mac1 [2] (read-out: perc_inhibition_mean, batch_name=ASAP-0000055-001), the inhibition at 50 µM was 3.83%.

For `CCN1CCN(C(=O)c2cnn3ccc(C4CCN(C(=O)c5ccccc5)CC4)cc23)CC1=O` [ASAP-0000406], the figures for the perc_inhibition_mean at SARS-CoV-2 nsp3-mac1 [1] (concentration 49.75 uM) and on SARS-CoV-2 nsp3-mac1 [1] (concentration 99.5 uM) were -8.634% and -3.464%, respectively. Besides, the inhibition at 49.75 µM on SARS-CoV-2 nsp3-mac1 [2] (setting [9]) is -8.63%. For the same compound, on SARS-CoV-2 nsp3-mac1 [2] (setting [9]), the inhibition at 99.5 µM was -3.46%.
